The values below come from US10174037B2, “Dihydropyrazolopyrimidinone compounds as PDE2 inhibitors” (Merck Sharp & Dohme Corp., priority 2015, dated 2019).

The test has as its target human PDE2A1 (Homo sapiens (Human), UniProt O00408). Description: PDE selectivity IMAP FP assay, human PDE2A1. The conditions noted are these: Human PDE2; Lab B; read-out: Human PDE2 Ki (nM) Lab B. The test is classed as biochemical. On the procedure:
Selectivity for PDE2, as compared to other PDE families, was assessed using the IMAP® technology. Human PDE10A2 enzyme was prepared from cytosolic fractions of transiently transfected HEK cells.
A Labcyte POD 810 (Labcyte, Sunnyvale, Calif.) was used to dispense 200 nL from each well of the titration plate to make eleven copies of the assay plate for each titration, one copy for each PDE enzyme. A solution of each enzyme (dilution from aliquots, sufficient to produce 20% substrate conversion) and a separate solution of FAM-labeled cAMP or FAM-labeled cGMP from Molecular Devices (Sunnyvale, Calif., product # R7506 or cGMP#R7508), at a final concentration of 50 nM were made in the assay buffer (10 mM Tris HCl, pH 7.2, 10 mM MgCl2, 0.05% NaN3 0.01% Tween-20, and 1 mM DTT). Note that the substrate for PDE2 is 50 nM FAM cAMP containing 1000 nM of cGMP. The enzyme and the substrate were then added to the assay plates in two consecutive additions of 10 μL and then shaken to mix. The reaction was allowed to proceed at room temperature for 60 minutes. A binding solution was then made from the kit components, comprised of 80% Solution A, 20% Solution B and binding reagent at a volume of 1/600 the total binding solution. The enzymatic reaction was stopped by addition of 60 μL of the binding solution to each well of the assay plate. […] The plates were incubated at room temperature for one hour, then the parallel and perpendicular fluorescence was measured using a Tecan Genios Pro plate reader (Tecan, Switzerland). […] The intrinsic PDE2 inhibitory activity of a compound which may be used in accordance with the present invention may be determined by these assays. […]
The PDE2 Ki is a measure of the ability of the test compound to inhibit the action of the PDE2 enzyme.

Sequence of human PDE2A1 (O00408 other isoform, or with tags, fused parts or gaps): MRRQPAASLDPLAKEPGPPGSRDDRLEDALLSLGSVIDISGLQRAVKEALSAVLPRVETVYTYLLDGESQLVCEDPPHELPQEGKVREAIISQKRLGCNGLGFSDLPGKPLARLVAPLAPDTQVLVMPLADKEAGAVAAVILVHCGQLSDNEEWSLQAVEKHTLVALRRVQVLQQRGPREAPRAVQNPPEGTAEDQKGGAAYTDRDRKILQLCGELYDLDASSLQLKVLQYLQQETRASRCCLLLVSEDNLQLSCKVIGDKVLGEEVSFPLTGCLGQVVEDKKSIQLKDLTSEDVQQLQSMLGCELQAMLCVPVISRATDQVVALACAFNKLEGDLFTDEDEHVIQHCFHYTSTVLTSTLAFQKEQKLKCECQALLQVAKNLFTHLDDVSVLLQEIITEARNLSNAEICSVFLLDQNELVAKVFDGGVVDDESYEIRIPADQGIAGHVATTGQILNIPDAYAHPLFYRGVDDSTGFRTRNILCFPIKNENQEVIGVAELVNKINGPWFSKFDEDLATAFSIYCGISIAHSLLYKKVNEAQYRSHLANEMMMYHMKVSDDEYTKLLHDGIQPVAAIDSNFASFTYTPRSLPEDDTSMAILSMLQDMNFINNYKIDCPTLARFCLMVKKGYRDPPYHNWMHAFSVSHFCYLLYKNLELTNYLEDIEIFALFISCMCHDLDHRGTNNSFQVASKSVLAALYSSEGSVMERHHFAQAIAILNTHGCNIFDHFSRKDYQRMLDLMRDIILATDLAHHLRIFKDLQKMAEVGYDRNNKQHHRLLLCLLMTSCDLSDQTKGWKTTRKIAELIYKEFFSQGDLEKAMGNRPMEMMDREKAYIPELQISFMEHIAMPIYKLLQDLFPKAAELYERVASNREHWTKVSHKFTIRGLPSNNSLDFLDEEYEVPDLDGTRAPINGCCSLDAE

Regarding `CN(C)c1nc2c(c(CO)nn2C(c2ccc(C(C)(F)F)c(F)c2)C2CC2)c(=O)[nH]1` (single isomer, unassigned) [Example 350, (R)- or (S)-1-(Cyclopropyl(4-(1,1-difluoroethyl)-3-fluorophenyl)methyl)-6-(dimethylamino)-3-(hydroxymethyl)-1H-pyrazolo[3,4-d]pyrimidin-4(5H)-one], the Ki is 0.14 nM.

On to `CC[C@@H](O)c1nn([C@@H](C)c2ccc(C(F)(F)F)cc2)c2nc(O)[nH]c(=O)c12` (mixture of isomers) [Example 294, (R,S)- and (R,R)- and (S,S)- and (S,R)-6-Hydroxy-3-(1-hydroxypropyl)-1-(1-(4-(trifluoromethyl)phenyl)ethyl)-1H-pyrazolo[3,4-d]pyrimidin-4(5H)-one], for which the Ki is 105 nM.

For the molecule `CCC(c1ccc(C(F)(F)F)cc1F)n1nc(CO)c2c(=O)[nH]c(N(C)C)nc21` (single isomer, unassigned) [Example 131, (S)- or (R)-6-(Dimethylamino)-1-(1-(2-fluoro-4-(trifluoromethyl)phenyl)propyl)-3-(hydroxymethyl)-1H-pyrazolo[3,4-d]pyrimidin-4(5H)-one], the Ki stood at 3.9 nM.

With `CC(c1ccc(C(F)(F)F)c(Cl)c1)n1nc(C(F)(F)F)c2c(=O)[nH]c(O)nc21` (single isomer, unassigned) [Example 327, (R)- or (S)-1-(1-(3-Chloro-4-(trifluoromethyl)phenyl)ethyl)-6-hydroxy-3-(trifluoromethyl)-1H-pyrazolo[3,4-d]pyrimidin-4(5H)-one], the Ki amounted to 382 nM.

Consider `CC(c1ccc(OC(F)F)c(Cl)c1)n1nc(C(F)(F)F)c2c(=O)[nH]c(O)nc21` (single isomer, unassigned) [Example 325, (R)- or (S)-1-(1-(3-Chloro-4-(difluoromethoxy)phenyl)ethyl)-6-hydroxy-3-(trifluoromethyl)-1H-pyrazolo[3,4-d]pyrimidin-4(5H)-one], for which the Ki worked out at 529 nM.

On to `C[C@@H](c1ccc(C(F)(F)F)cc1)n1nc(C(F)F)c2c(=O)[nH]c(N(C)C)nc21` [Example 289, (S)-3-(Difluoromethyl)-6-(dimethylamino)-1-(1-(4-(trifluoromethyl)phenyl)ethyl)-1H-pyrazolo[3,4-d]pyrimidin-4(5H)-one], for which the Ki is 0.25 nM.

With `CCC(c1ccc(OC(F)F)c(F)c1)n1nc(CF)c2c(=O)[nH]c(N(C)C)nc21` (single isomer, unassigned) [Example 340, (R)- or (S)-1-(1-(4-(Difluoromethoxy)-3-fluorophenyl)propyl)-6-(dimethylamino)-3-(fluoromethyl)-1H-pyrazolo[3,4-d]pyrimidin-4(5H)-one], the inhibitory constant (Ki) amounted to 0.58 nM.

In the case of `CCC(c1ccc(C(F)F)cc1)n1nc(CF)c2c(=O)[nH]c(N(C)C)nc21` (single isomer, unassigned) [Example 346, (R)- or (S)-1-(1-(4-(Difluoromethyl)phenyl)propyl)-6-(dimethylamino)-3-(fluoromethyl)-1H-pyrazolo[3,4-d]pyrimidin-4(5H)-one], the Ki worked out at 6.5 nM.

For `CCC(c1ccc(OC(F)F)c(F)c1)n1nc(CF)c2c(=O)[nH]c(N(C)C)nc21` (single isomer, unassigned) [Example 341, (S)- or (R)-1-(1-(4-(Difluoromethoxy)-3-fluorophenyl)propyl)-6-(dimethylamino)-3-(fluoromethyl)-1H-pyrazolo[3,4-d]pyrimidin-4(5H)-one], the Ki came to 0.15 nM.

For `CN(C)c1nc2c(c(CF)nn2C(c2ccc(C(F)(F)F)c(F)c2)C2CC2)c(=O)[nH]1` (single isomer, unassigned) [Example 180, (R)- or (S)-1-(Cyclopropyl(3-fluoro-4-(trifluoromethyl)phenyl)methyl)-6-(dimethylamino)-3-(fluoromethyl)-1H-pyrazolo[3,4-d]pyrimidin-4(5H)-one], the Ki was found to be 1.2 nM.

Take `CC(c1ccc(C(C)(F)F)c(F)c1)n1nc(CF)c2c(=O)[nH]c(N(C)C)nc21` (single isomer, unassigned) [Example 210, (R)- or (S)-1-(1-(4-(1,1-Difluoroethyl)-3-fluorophenyl)ethyl)-6-(dimethylamino)-3-(fluoromethyl)-1H-pyrazolo[3,4-d]pyrimidin-4(5H)-one]: the Ki was 3.3 nM.

Take `CN(C)c1nc2c(c(CO)nn2C(c2ccc(C(C)(F)F)c(F)c2)C2CC2)c(=O)[nH]1` (single isomer, unassigned) [Example 351, (S)- or (R)-1-(Cyclopropyl(4-(1,1-difluoroethyl)-3-fluorophenyl)methyl)-6-(dimethylamino)-3-(hydroxymethyl)-1H-pyrazolo[3,4-d]pyrimidin-4(5H)-one]: the Ki was 0.02 nM.

In the case of `CC(c1ccc(C(C)(F)F)c(F)c1)n1nc(CF)c2c(=O)[nH]c(N(C)C)nc21` (single isomer, unassigned) [Example 211, (S)- or (R)-1-(1-(4-(1,1-Difluoroethyl)-3-fluorophenyl)ethyl)-6-(dimethylamino)-3-(fluoromethyl)-1H-pyrazolo[3,4-d]pyrimidin-4(5H)-one], the Ki worked out at 0.048 nM.

Turning to `O=c1[nH]c(O)nc2c1c(C(F)F)nn2C(CC(F)(F)F)c1ccc(C(F)(F)F)cc1` (single isomer, unassigned) [Example 272], the inhibitory constant (Ki) was determined as 43 nM.

For `CCC(c1ccc(C(F)(F)F)cc1F)n1nc(CF)c2c(=O)[nH]c(N(C)C)nc21` (single isomer, unassigned) [Example 199, (S)- or (R)-6-(Dimethylamino)-1-(1-(2-fluoro-4-(trifluoromethyl)phenyl)propyl)-3-(fluoromethyl)-1H-pyrazolo[3,4-d]pyrimidin-4(5H)-one], the Ki was found to be 1.1 nM.

As for `CC(c1ccc(CC(F)(F)F)cc1)n1nc(CF)c2c(=O)[nH]c(N(C)C)nc21` (single isomer, unassigned) [Example 174, (R)- or (S)-6-(Dimethylamino)-3-(fluoromethyl)-1-(1-(4-(2,2,2-trifluoroethyl)phenyl)ethyl)-1H-pyrazolo[3,4-d]pyrimidin-4(5H)-one], the inhibition constant (Ki) was 2.7 nM.

Regarding `CCOc1nc2c(c(CO)nn2[C@@H](C)c2ccc(C(F)(F)F)cc2)c(=O)[nH]1` [compound 302, 6-Ethoxy-3-(hydroxymethyl)-1-{(1S)-1-[4-(trifluoromethyl)phenyl]ethyl}-1,5-dihydro-4H-pyrazolo[3,4-d]pyrimidin-4-one], the Ki was 3.7 nM.

Regarding `CC(c1ccc(C2CC2)cc1)n1nc(C(F)F)c2c(=O)[nH]c(O)nc21` (single isomer, unassigned) [Example 275, (R)- or (S)-1-(1-(4-Cyclopropylphenyl)ethyl)-3-(difluoromethyl)-6-hydroxy-1H-pyrazolo[3,4-d]pyrimidin-4(5H)-one], the Ki is 416 nM.

For the molecule `O=c1[nH]c(O)nc2c1c(C(F)(F)F)nn2C(c1ccc(C(F)(F)F)cc1)C1CC1` (single isomer, unassigned) [Example 335, (R)- or (S)-1-(Cyclopropyl(4-(trifluoromethyl)phenyl)methyl)-6-hydroxy-3-(trifluoromethyl)-1H-pyrazolo[3,4-d]pyrimidin-4(5H)-one], the Ki amounted to 137 nM.

For the molecule `CC(C)C(c1ccc(C(C)(F)F)cc1)n1nc(CO)c2c(=O)[nH]c(N)nc21` (single isomer, unassigned) [Example 356], the Ki stood at 0.68 nM.

For `CC(c1ccc(CC(F)F)cc1)n1nc(C(F)(F)F)c2c(=O)[nH]c(O)nc21` (single isomer, unassigned) [Example 320, (S)- or (R)-1-(1-(4-(2,2-Difluoroethyl)phenyl)ethyl)-6-hydroxy-3-(trifluoromethyl)-1H-pyrazolo[3,4-d]pyrimidin-4(5H)-one], the Ki turned out to be 13 nM.

As to `CCC(c1ccc(C(F)F)cc1)n1nc(CF)c2c(=O)[nH]c(N(C)C)nc21` (single isomer, unassigned) [Example 347, (S)- or (R)-1-(1-(4-(Difluoromethyl)phenyl)propyl)-6-(dimethylamino)-3-(fluoromethyl)-1H-pyrazolo[3,4-d]pyrimidin-4(5H)-one], the Ki is 0.08 nM.

Take `CC(c1ccc(C(F)(F)F)cc1F)n1nc(CF)c2c(=O)[nH]c(N(C)C)nc21` (single isomer, unassigned) [Example 187, (S)- or (R)-6-(Dimethylamino)-1-(1-(2-fluoro-4-(trifluoromethyl)phenyl)ethyl)-3-(fluoromethyl)-1H-pyrazolo[3,4-d]pyrimidin-4(5H)-one]: the inhibition constant (Ki) is 19 nM.

For the molecule `CC(c1ccc(C(F)(F)C(F)(F)F)cc1)n1nc(CO)c2c(=O)[nH]c(O)nc21` (single isomer, unassigned) [Example 32, (S)- or (R)-6-Hydroxv-3-(hydroxymethyl)-1-(1-(4-(perfluoroethyl)phenyl)ethyl)-1H-pyrazolo[3,4-d]pyrimidin-4(5H)-one], the Ki was about 1900 nM.

What is called Ki is the dissociation constant of the complex between target and ligand, obtained from inhibition or displacement.
